# Patent US20100048462A1, “TRUNCATED PTH PEPTIDES WITH A CYCLIC CONFORMATION” (Zealand Pharma A/S, priority 2006, published 2010)
# Bridge positions count the residues as written; N and C are the ends. Square brackets hold non-standard residues; d marks the D form. Peptide text beside a SMILES is read from it. I, II: the chains in the order shown. hArg = N=C(N)NCCCC[C@H](N)C(=O)O; Ac5c = NC1(C(=O)O)CCCC1; Aib = CC(C)(N)C(=O)O
# Columns and labels:
# [1] = target: T1, Saos-2 PTH1R (Homo sapiens, UniProt Q03431); assay: cAMP-efficacy assay in Saos-2 cells; format: cell-based; details: for Emax ± SEM: relative effect to the control (SEQ ID NO: 32)
# T1 construct: endogenous in cells; host or cells: Saos-2
# T1 sequence (Q03431 27-593): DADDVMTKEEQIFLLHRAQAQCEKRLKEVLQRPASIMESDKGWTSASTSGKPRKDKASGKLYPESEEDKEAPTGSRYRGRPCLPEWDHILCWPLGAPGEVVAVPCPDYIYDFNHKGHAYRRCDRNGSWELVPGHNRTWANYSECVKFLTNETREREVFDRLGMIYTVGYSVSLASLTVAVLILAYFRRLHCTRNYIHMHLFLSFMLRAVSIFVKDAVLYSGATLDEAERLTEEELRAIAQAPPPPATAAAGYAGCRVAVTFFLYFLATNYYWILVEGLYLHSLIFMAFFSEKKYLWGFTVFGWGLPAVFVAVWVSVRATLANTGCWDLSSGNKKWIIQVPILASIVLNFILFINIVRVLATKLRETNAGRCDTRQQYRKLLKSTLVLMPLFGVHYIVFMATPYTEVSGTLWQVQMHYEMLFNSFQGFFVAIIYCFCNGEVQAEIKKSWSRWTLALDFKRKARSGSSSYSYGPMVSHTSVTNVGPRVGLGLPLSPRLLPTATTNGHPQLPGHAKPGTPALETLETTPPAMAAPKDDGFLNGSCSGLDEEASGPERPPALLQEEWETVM
# Procedure, shortened: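 cAMP accumulation was assayed by FlashPlate after 15 min peptide stimulation at 37 °C of Saos-2 cells in Tyrode's buffer containing 100 μM IBMX and 0.1% BSA, with the reaction stopped by ice-cold HCl. Variable-slope logistic fitting gave EC50/pEC50, Hill coefficient and Emax, with single or triplicate points.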
# [2] = test system: ovariectomized (OVX) rat; assay: OVX rat model, bone strength measurements; format: in vivo; details: for bone strength of the femoral head in a compression test: FIG. 10; for bone strength of the femoral head in a compression test / bone strength of the femur in a three-point bending test versus vehicle-treated OVX animals: all doses; for bone strength of the femur, shaft region and femoral head region, versus vehicle-treated OVX-group: FIGS. 10 and 11
# Experimental: One hundred and seventy-eight female Fisher rats were used for the experiment. Initially the animals were housed in Macrolon type 3 cages (2 rats/cage) under controlled conditions (20° C., 55-85% humidity) following a 12:12-hrs light/dark cycle with light on at 6 am. The animals were fed ad libitum with standard Altromin No. 1324 diet (Chr. Petersen, Ringsted, Denmark). The animals had free access to drinking water (domestic quality tap water added citric acid to pH≈3). At the time of inclusion the animals were 6 months old.
# The week before OVX the animals were stratified according to body weight into two groups that were subjected to either OVX (140 animals) or sham operation (38 animals). Rats were anaesthetized with Hypnorm-Dormicum and the ovariectomy was performed through a midline laparotomy. Sham-operated animals were subjected to midline laparotomy, and the ovaries were exposed but not removed (sham). This group served as an age matched non-osteoporotic control group. A microchip was implanted into each rat during surgery, in order to allow identification of the animals.
# To allow osteopenia to develop before treatment start, animals were housed for 7 weeks (pre-treatment period) without pharmacological treatment. At the end of the pre-treatment period, sham- and OVX-operated rats were stratified according to bodyweight and divided into six groups of 13-20 animals each (Table 7). At this point, one OVX group (N=20) and one sham group (N=20) were sacrificed. These control groups established baseline levels of bone mineral density (BMD). Furthermore, samples were stored for possible later analysis of bone markers, bone strength, histomorphometry and μCT scans.
# For the following 6 weeks one sham group and one OVX group were subjected to vehicle administration (40 mM sodium acetate, 45 mM histidine and 3.9% mannitol, pH 5.5, 300 mOsm/kg). Five OVX groups were treated with increasing doses of the cyclic PTH(1-17) analogue SEQ ID NO: 19. Another OVX group was treated with SEQ ID NO: 33 (Table 7). All drugs were given as s.c. injections. After 6 weeks of treatment the animals were sacrificed. Spine, tibia and femur were collected for analysis of BMD by DEXA-scan and bone samples were stored for later bone strength measurements.
# Lumbar vertebrae (L4-L5-L6-S1), left femur and tibia were collected, cleaned, packed in saline moistened gaze in a tube and stored at −20° C. for later ex vivo bone strength measurements. Right femur and tibia as well as lumbar vertebrae (T13-L1-L2-L3) and caudal vertebrae (S2-S3-C1-C2-C3) were collected, cleaned and stored in 70% ethanol for analysis of bone mineral density (BMD) and possible later histomorphometry and/or μCT scanning.
# Bone strength measurements were performed on a compression device (Lloyd Instruments, Fareham, UK). Bones were positioned with the help of custom-made holders, in order to achieve maximal reproducibility. Maximal force to fracture was determined.
# Overall comparison among groups was performed using one-way ANOVA for one-way classified data (BMD). For individual comparisons among groups, post-hoc analysis was performed using Fisher's least significant difference test. Differences were considered significant at the 5% level. All data are presented as mean±SEM.
Compound,"EC50 ([1]; cAMP, 100 μM IBMX, 37° C. 15 min, suffix of label = salt tested) [nM]",Emax ± SEM [1],bone strength of the femoral head in a compression test [2],bone strength of the femur in a three-point bending test versus vehicle-treated OVX animals ([2]; FIG. 11),"bone strength of the femur in a three-point bending test versus vehicle-treated sham animals ([2]; FIG. 11, doses higher than 20 nmol/kg/d)","bone strength of the femur, shaft region and femoral head region, versus vehicle-treated OVX-group [2]",bone strength versus vehicle-treated sham-operated group ([2]; doses greater than 20 nmol/kg/d),bone strength compared to vehicle-treated OVX-group ([2]; 5 nmol/kg/d)
"CC[C@H](C)[C@H](NC(=O)[C@H](CCC(=O)O)NC(=O)C(C)(C)NC(=O)[C@@H](NC(=O)C1(N)CCCC1)C(C)C)C(=O)N[C@@H](CCC(N)=O)C(=O)N[C@@H](CC(C)C)C(=O)N[C@@H](CC(C)C)C(=O)N[C@@H](Cc1c[nH]cn1)C(=O)N[C@@H](CCC(N)=O)C(=O)N[C@@H](CCCCNC(=N)N)C(=O)N[C@@H](C)C(=O)N[C@H]1CCCCNC(=O)C[C@@H](C(N)=O)NC(=O)[C@H](CC(N)=O)NC(=O)[C@H](CC(C)C)NC(=O)[C@H](Cc2c[nH]c3ccccc23)NC1=O [SEQ ID NO: 19, H-Ac5c-Val-Aib-Glu-Ile-Gln-Leu-Leu-His-Gln-Har-Ala-Lys( )-Trp-Leu-Asn-Asp( )-NH2] (H-[Ac5c]V[Aib]EIQLLHQ[hArg]AKWLND-NH2; lactam 13-17)",10.2,1.05 ± 0.04,higher than in vehicle-treated OVX and sham animals at all doses,higher than in vehicle-treated OVX animals at all doses,increased strength compared to vehicle-treated sham animals,significantly increased,significantly increased,–
"CC[C@H](C)[C@H](NC(=O)[C@H](CCC(=O)O)NC(=O)C(C)(C)NC(=O)[C@@H](NC(=O)C1(N)CCCC1)C(C)C)C(=O)N[C@@H](CCC(N)=O)C(=O)N[C@@H](CC(C)C)C(=O)N[C@@H](CCSC)C(=O)N[C@@H](Cc1c[nH]cn1)C(=O)N[C@@H](CCC(N)=O)C(=O)N[C@@H](CCCCNC(=N)N)C(=O)N[C@@H](C)C(=O)N[C@H]1CCCCNC(=O)C[C@@H](C(N)=O)NC(=O)[C@H](CC(C)C)NC(=O)[C@H](Cc2c[nH]c3ccccc23)NC(=O)[C@@H](NC(=O)[C@H](C)NC(=O)[C@H](CCCCNC(=N)N)NC(=O)[C@H](CCC(N)=O)NC(=O)[C@H](Cc2c[nH]cn2)NC(=O)[C@H](CCSC)NC(=O)[C@H](CC(C)C)NC(=O)[C@H](CCC(N)=O)NC(=O)[C@@H](NC(=O)[C@H](CCC(=O)O)NC(=O)C(C)(C)NC(=O)[C@@H](NC(=O)C2(N)CCCC2)C(C)C)[C@@H](C)CC)CCCCNC(=O)C[C@@H](C(N)=O)NC(=O)[C@H](CC(C)C)NC(=O)[C@H](Cc2c[nH]c3ccccc23)NC1=O [SEQ ID NO: 33, (H-Ac5c-Val-Aib-Glu-Ile-Gln-Leu-Met-His-Gln-Har-Ala-Lys( )-Trp-Leu-Asp( )-NH2)2] (I: H-[Ac5c]V[Aib]EIQLMHQ[hArg]AKWLD-NH2 / II: H-[Ac5c]V[Aib]EIQLMHQ[hArg]AKWLD-NH2; amide I:13-II:16, I:16-II:13 (inferred))",–,1.10 ± 0.04,higher than in vehicle-treated OVX and sham animals at all doses,higher than in vehicle-treated OVX animals at all doses,–,significantly increased,–,significantly increased
